These results are taken from patent US20140090094A1, “MODULATORS OF SLC22A7” (BAYER INTELLECTUAL PROPERTY GmbH, priority 2011, published 2014).

Molecules are shown by their SMILES. “And” between values parts separate entries of the source, which are not always exact repeats. Equal entries are not always repeated.

For data set [1] the following is noted: cited from earlier work.
Data set [2] addresses OAT2h splice variant E131_W132insSQ (Homo sapiens, UniProt Q9Y694). Particulars: initial rate 1 min, 37° C., 10 μmol/l, LC-MS/MS, uptake buffer in the expression period. The protocol:
(§1) A substrate search by LC-MS difference shading was performed with 293 cells stably transfected to express OAT2 from rat. […] To verify that trigonelline is directly transported by OAT2 and not just increased indirectly, initial rates of uptake (1 min, 37° C.) of trigonelline (10 μmol/l) were determined by LC-MS/MS.
For measurement of solute uptake, cells were grown in surface culture on 60 mm polystyrol dishes (Nunclon 150288, Nunc, Roskilde, Denmark) precoated with 0.1 g/l poly-L-ornithine in 0.15 M boric acid-NaOH, pH 8.4. Cells were used for uptake experiments at a confluence of at least 70%. Uptake was measured at 37° C. […] Radioactivity was determined, after cell lysis with 0.1% v/v Triton X-100 in 5 mmol/l TRIS-HCl pH 7.4, by liquid scintillation counting. […]
After centrifugation (1 min, 16000×g, 20° C.) of thawed lysates, 100 μl of the supernatant was mixed with either 10 μl unlabeled MPP+ iodide (0.5 ng/μl) or biphenyl-4-carboxylic acid (Sigma-Aldrich) as internal standard. Of this mixture, […] were analyzed by LCMS/MS on a triple quadrupole mass spectrometer (4000 Q TRAP, Applied Biosystems, Darmstadt, Germany). […] For quantification (scan time 150 ms), the optimal collision energy for argon-induced fragmentation in the second quadrupole was determined for each analyte. […] Acute uptake mediated by heterologously expressed carrier was then calculated as (c−a)−(d−b). […]

The target in data set [3] is T1, OAT2r (Rattus norvegicus, UniProt Q5RLM2).
T1 construct: expressed in transfected cells
T1 sequence (Q5RLM2 1-535): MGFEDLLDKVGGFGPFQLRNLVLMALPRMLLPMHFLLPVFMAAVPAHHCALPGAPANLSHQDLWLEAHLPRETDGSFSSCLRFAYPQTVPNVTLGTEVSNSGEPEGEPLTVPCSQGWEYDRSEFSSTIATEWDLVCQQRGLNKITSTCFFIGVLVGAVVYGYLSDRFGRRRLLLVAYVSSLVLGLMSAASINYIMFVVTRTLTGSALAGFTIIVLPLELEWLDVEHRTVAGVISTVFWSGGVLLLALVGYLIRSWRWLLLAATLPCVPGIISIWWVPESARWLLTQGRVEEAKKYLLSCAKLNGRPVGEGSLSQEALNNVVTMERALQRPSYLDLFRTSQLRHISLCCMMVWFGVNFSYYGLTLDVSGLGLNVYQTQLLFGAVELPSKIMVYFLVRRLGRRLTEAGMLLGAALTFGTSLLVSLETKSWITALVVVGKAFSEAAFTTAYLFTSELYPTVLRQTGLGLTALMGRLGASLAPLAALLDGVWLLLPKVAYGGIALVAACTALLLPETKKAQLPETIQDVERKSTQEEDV
As to the kind of experiment: 24 h accumulation in lysates of OAT2r-expressing versus control cells (LC-MS/MS). Type of data set: cell-based. As to conditions: 24 h incubation, compound at 100 μmol/l. The protocol: as §1
With trigonelline as substrate lead, compounds wholly or partly related in structure were analyzed for transport by OAT2 from rat.
After centrifugation (1 min, 16000×g, 20° C.) of thawed lysates, 100 μl of the supernatant was mixed with either 10 μl unlabeled MPP+ iodide (0.5 ng/μl) or biphenyl-4-carboxylic acid (Sigma-Aldrich) as internal standard. Of this mixture, […] were analyzed by LCMS/MS on a triple quadrupole mass spectrometer (4000 Q TRAP, Applied Biosystems, Darmstadt, Germany). […] Atmospheric pressure ionization with positive or negative electrospray was used. For quantification (scan time 150 ms), the optimal collision energy for argon-induced fragmentation in the second quadrupole was determined for each analyte. […] Linear calibration curves were constructed from at least six standards which were prepared using control cell lysates as solvent. Sample analyte content was calculated from the analyte response ratio and the slope of the calibration curve, obtained by linear regression. With LC-MS quantitation, solute content of cell lysates was determined for 4 conditions ([…]): a) transporter expression on, uptake buffer; b) expression off, uptake buffer; c) expression on, substrate in uptake buffer; d) expression off, substrate in uptake buffer. Acute uptake mediated by heterologously expressed carrier was then calculated as (c−a)−(d−b). This approach takes into account endogenous solute content and non-specific uptake. Protein was measured by the BCA assay (Pierce) with bovine serum albumin as standard. The protein content of MS samples was estimated from 3 matched cell dishes.

With `O=C(O)c1cc(=O)[nH]c(=O)[nH]1` [orotic acid], the pKa result in data set [1] is on record as “≈ 2.4”. With `C[n+]1cccc(C(=O)[O-])c1` [trigonelline], in data set [2], the carrier-mediated clearance turned out to be 2.5±0.9 μl min-1 mg protein-1. Also, the “increase in OAT2r cell lysates versus control cells (factor f)” value in data set [3] is 8.1 and 4.7.
